Reference: patent US20200046800A1, “BIOCIDAL AGENT” ("VERTA RESEARCH-PRODUCTION COMPANY" LTD, priority 2017, published 2020)

Experiments:
[1] = system: type 2 herpes simplex virus, strain G (ATCC VR-734); assay: Lethal herpes infection in mice by vaginal infection, protective effect of gels; format: in vivo
Excerpt: Eight groups of animals, containing 15 subjects each, were formed to conduct the experiment.
Groups 1-6: infected with type 2 herpes simplex virus and administered gels I-VI (experimental groups 1-6).
Group 8: infected with type 2 herpes simplex virus and not administered any pharmaceutical preparations (virus control).
Type 2 herpes simplex virus, strain G (ATCC VR-734, USA), was used in the experiment. The virus was cultivated in the T98G cell culture (human brain glioblastoma), then adapted to mice by two consecutive intracerebral passages. To prepare the final infective material, the animals were intracerebrally infected with brain tissue homogenate from the second passage; on the 4th day post infection, the animals were euthanized, their brain was extracted, homogenized, used to infect Vero cells, and incubated for 48 hours at 37° C. under 5% CO2 using the culture fluid, in which the infectious titer of the virus was previously determined, as the infective material.
The murine vaginal epithelium was injured with a scarifier for vaginal smears, after which the animals were infected with 30 μl of the virus at a 10^6 TCID50 dose. The examined gels were administered to mice in […] per the following regimen: 0.05 ml once a day 1, 2, 3, 4, and 5 days post infection.
The animals were followed for 18 days; their mortality was recorded daily. Cessation of mortality was defined by the absence of mice with signs of herpetic vaginitis (vaginal discharge) and complications thereof (posterior limb paresis). Based on the mortality data for each group, the mortality rate (Mr, ratio of the fallen animals at the time of control to the total number of infected animals in the group), protective index (IP, ratio of the difference in the percentage of mortality in the control and experimental groups to the percentage of mortality in the control group), and average life span of the animals (ALS) per each day of the experiment were calculated.
The protective effect of the peptide-containing gels was assessed by the reduction in the specific mortality and increase in the life span of the animals compared to the control group that wasn't treated.

HPV-2 = conditions: guinea pigs; cited from earlier work
[2] = guinea pigs, HPV-2; cited from earlier work
[3] = system: human herpes simplex virus type 2 (HPV-2); conditions: male rabbits, local application; cited from earlier work
[4] = n = 15, vaginal HSV-2 10^6 TCID50, gel 0.05 ml once a day days 1-5, followed 18 days
[5] = n = 15, vaginal HSV-2, followed 18 days

Compound | Number of dead animals [1, 4] | Number of survived animals [1, 4] | ALS (average life span) [1, 5] | Mortality [1, 5] [%] | Increase in ALS ([1]; versus virus control, n = 15) | Disease duration (HPV-2) | Discharge of the virus from the lesions [2] | Length of the primary genital herpes outbreak [3] | Viral load on the body [3]
Nc1nc2c(ncn2COCCO)c(=O)[nH]1 [Acyclovir] | 4 | 11 | 13.9 24 hrs. | 26.7 | 2.6 | – | – | – | –
NH2-His-Gly-Val-Ser-Gly-His-Gly-Gln-His-Gly-Val-His-Gly-COOH (H-HGVSGHGQHGVHG-OH) [Peptide 1] | – | – | – | – | – | statistically significant reduction | statistically significant reduction | significantly shortened | reduced
